Experiments:
leaves of Pinto bean = assay: Protein synthesis, glycine-2-14C incorporation in Pinto bean leaves (Example 19); conditions: 18 hours, zeatin 20 ppm, kinetin/benzyladenine 30 ppm, others 200 ppm
Method: The tests were performed on leaves of Pinto bean. The leaf segments were treated with an endogeneous cytokinin (zeatin), synthetic cytokinins (kinetin, benzyladenine) or with the compositions according to the invention, respectively, by floating the leaf segments on the solution of the test substance for 18 hours. Thereafter the leaf segments were exposed to a labelled amino acid (glycine-2-^14 C) for 3 hours, and the incorporation of the amino acid was determined by radiometry.

Pannonia vine variety = assay: Berry yield and sugar content of vine, Pannonia (Example 33); assay type: in vivo; conditions: for Berry yield: 3 x 2 kg/ha, control 216; for Sugar content: control 13.0; for Sugar yield: control 28.08
Method: Vine stands were sprayed with the compositions according to the invention to examine their effects exerted on the berry yield and sugar content. The compositions, diluted with water, were sprayed three times onto the plants. The first treatment was performed prior to flowering, the second one three weeks later, and the third one six weeks after the first one. The dose applied was 2 kg/ha in each of the treatments.
Comparative tests were also performed with commonly used growth regulating compositions, i.e. CCC (chlorocholine chloride), Ethrel (or Etefon; 2-chloroethylphosphonic acid) and Nevirol (N-phenyl-phthalaiminic acid). The results were compared to those observed with the untreated controls.
Two vine varieties, Pannonia and Egri leanyka, were involved in the tests.

Pinto beans = assay: Preservation of chlorophyll in Pinto beans (Example 17); assay type: in vivo; conditions: zeatin 20 ppm, kinetin/benzyladenine 30 ppm, others 200 ppm; for Extinction: 665 mμ, 200 mg fresh weight, 2 weeks
Method: Endogeneous and synthetic cytokinins were applied as comparative substances. Solutions with varying concentrations, but always more dilute than 10^-4 moles, were applied in the tests.
The tests were performed on Pinto beans. The plants were treated with an endogenous cytokinin (zeatine), synthetic cytokinins (kinetin, benzyladenine) or cytokinin-like compounds, respectively, and the chlorophyll content of the leaves was determined 2 weeks after the treatment by measuring the extinction of the extract of the leaves at 665 mμ.

Pinto bean = assay: Stimulation of membrane activity (nitrate uptake), Pinto bean (Example 25); assay type: in vivo; conditions: for Protein nitrogen / Total nitrogen: 2 weeks; for Protein nitrogen / Total nitrogen / Protein nitrogen, stimulation / Protein nitrogen content in % of the total nitrogen content: zeatin 20, kinetin/benzyladenine 30, others 200 ppm; for Protein nitrogen: control 2.4; for Total nitrogen: control 3.8; for Total nitrogen, stimulation: 200 ppm; for Protein nitrogen content in % of the total nitrogen content: control 63
Method: The tests were performed on Pinto bean. The plants were treated with solutions of an endogeneous cytokinin (zeatin), synthetic cytokinins and membraneactive regulators according to the invention, respectively, and the leaves of the plants were analyzed 2 weeks after the treatment.

hybrid maize = assay: Grain yield of maize (Example 29); assay type: in vivo; conditions: for Grain yield, increase: in vivo; for Grain yield: seed dressing 0.5 kg/ha + sprays 3, 1, 2 kg/ha, control 132.8
Method: The compositions according to the invention were applied as seed dressing agents onto the sowing-seeds of hybrid maize in a dosis of 0.5 kg/ha. The powdery compositions were wetted with water prior to application. The stand was sprayed three times during the cultivation period: first at the four-leaves development stage with a dosis of 3 kg/ha, then prior to tasseling with a dosis of 1 kg/ha, and finally prior to pollen ripening with a dosis of 2 kg/ha. The crop was evaluated as May shelled corn.

leaves of Pinto beans = assay: Stimulation of carbon dioxide fixation, Pinto beans (Example 21); conditions: zeatin 20, kinetin/benzyladenine 30, others 200 ppm; for Radioactivity A: A = in the light, control 2.14; for Radioactivity B: B = in the dark, control 0.18; for Radioactivity C: C = photosynthetic, control 2.32
Method: The tests were performed on leaves of Pinto beans. The leaf segments were treated with an endogeneous cytokinin (zeatin), synthetic cytokinins (kinetin, benzyladenine) or with the compositions according to the invention, respectively, by floating the leaf segments on the solution of the test substance for 18 hours, thereafter the leaf segments were exposed to labelled carbon dioxide (activity: 100 μCi/5000 ml of ^14 CO2) for 0.5 hours.

[1] = test system: callus isolated from Datura innoxia Mill. roots; assay: Growth of callus isolated from Datura innoxia Mill. roots (Example 15); assay type: cell-based; conditions: for percentage growth promoting effect: control = 100, 30240 min
Pea = assay: Stimulation of nutrient uptake, labelled phosphate, pea (Example 24); conditions: for labelled phosphate in nucleic acid fraction: 200 ppm, control 23.3
Method: The compositions according to the invention were diluted with distilled water to an active agent concentration of 200 ppm, and leaf segments of wheat, maize and pea, weighing 200 mg each, were treated with the solutions. Thereafter the treated green leaf segments were treated for 0.5 hours with a solution of labelled phosphate ions (radioactivity: 30 μCi/50 ml). After this exposition period the treated leaf segments and the untreated controls were processed in a manner known per se to isolate the nucleic acid fractions, and the isolated nucleic acid fractions were dissolved in 6 n ammonium hydroxide solution. Stock solutions were prepared from the resulting solutions, and the amount of labelled phosphate ions present in the stock solutions were measured by liquid scintillation.

Alfalfa = assay: Total and protein nitrogen content of alfalfa, field (Example 26); assay type: in vivo; conditions: for Protein nitrogen content: control 2.25; for Total nitrogen content: control 3.36
Method: Alfalfa was treated with the compositions according to the invention under large-parcel field conditions. The tests were performed in fourfold replications on parcels 1 hectare in area, each. The oily compositions according to the invention were diluted with water and then sprayed onto the test parcels either once or twice.
The parcels were sprayed first when the soil was already covered with sprouting alfalfa shoots. The second treatment, if any, was performed two weeks later. The dose applied in all of the treatments was 2 kg/ha.
The total nitrogen content and the protein nitrogen content of alfalfa, harvested from the untreated, once-treated and twice-treated parcels, was measured.

sugar beet = assay: Crop yield and sugar content of sugar beet (Example 32); assay type: in vivo; conditions: for Crop yield: 1 kg/ha seed + 2 x 2 kg/ha, control 541; for Sugar content: after harvesting, control 16.0; for Sugar yield: control 87.56; for Sugar yield, increase: in vivo
Method: Glomeruli of sugar beet were treated with the compositions according to the invention (a dose corresponding to 1 kg/ha was applied), and the glomeruli were sown into large parcels. The plants emerged were sprayed twice with the compositions according to the invention, applying a dose of 2 kg/ha, each.
The sugar contents of the plants grown on the treated and control parcels were examined in August.
The crop yield and the sugar content were also determined after harvesting.

N=C(N)N.N=C(N)N.Oc1nnc(O)c2ccccc12 [1,4-dihydroxyphthalazine diguanidine salt]
Stimulation (leaves of Pinto bean): 39.0%
Sugar content, increase (Pannonia vine variety): 53.8%
Sugar yield, increase (Pannonia vine variety): 62%
Berry yield (Pannonia vine variety): 232 q/ha
Sugar content (Pannonia vine variety): 20.0%
Sugar yield (Pannonia vine variety): 46.40 q/ha
Extinction (Pinto beans): 0.985
Promotion (Pinto beans): 46.8%
Protein nitrogen (Pinto bean): 4.1 % of dry weight
Total nitrogen (Pinto bean): 4.8 % of dry weight
Total nitrogen, stimulation (Pinto bean): 26.3%
Protein nitrogen, stimulation (Pinto bean): 70.8%
Protein nitrogen content in % of the total nitrogen content (Pinto bean): 85%
Grain yield, increase (hybrid maize): 37.0%
Grain yield (hybrid maize): 181.9 q/ha
Radioactivity A (leaves of Pinto beans): 3.38 dpm/200 mg fresh weight
Radioactivity B (leaves of Pinto beans): 0.31 dpm/200 mg fresh weight
Radioactivity C (leaves of Pinto beans): 3.69 dpm/200 mg fresh weight
Stimulation (leaves of Pinto beans): 59.3%
Dry substance ([1]; with kinetin (2 ppm)): 3.53%
Dry weight of the callus ([1]; with kinetin (2 ppm)): 269.07 mg
Fresh weight of the callus ([1]; with kinetin (2 ppm)): 7.6110 g
Growth, dry weight ([1]; with kinetin (2 ppm)): 24.46
Growth, fresh weight ([1]; with kinetin (2 ppm)): 24.37
Speed of growth ([1]; with kinetin (2 ppm)): 149.20 mg/day
percentage growth promoting effect ([1]; with kinetin): 156%
Dry substance ([1]; without kinetin): 7.14%
Dry weight of the callus ([1]; without kinetin): 66.11 mg
Fresh weight of the callus ([1]; without kinetin): 0.9258 g
Growth, dry weight ([1]; without kinetin): 5.25
Growth, fresh weight ([1]; without kinetin): 2.08
Speed of growth ([1]; without kinetin): 12.77 mg/day
percentage growth promoting effect ([1]; without kinetin): 648%
activation at 200 ppm (Pea): 51.7%
labelled phosphate in nucleic acid fraction (Pea): 38.4 1000 cpm/g
Protein nitrogen content, stimulation (Alfalfa; 1 treatment, 2 kg/ha): 54%
Total nitrogen content, stimulation (Alfalfa; 1 treatment, 2 kg/ha): 24%
Protein nitrogen content (Alfalfa; 1 treatment, 2 kg/ha): 3.48 % of dry substance
Total nitrogen content (Alfalfa; 1 treatment, 2 kg/ha): 4.17 % of dry substance
Crop yield (sugar beet): 608 q/ha
Sugar content (sugar beet): 16.45%
Sugar yield (sugar beet): 100.01 q/ha
Sugar yield, increase (sugar beet): 14%

CCC[n+]1c[nH]c2ccccc21.[Br-] [N--(n-Propyl)-benzimidazolium bromide, N-(n-propyl)-benzimidazolium bromide]
Stimulation (leaves of Pinto bean): 42.7%
Radioactivity of the TCA-insoluble fraction (leaves of Pinto bean; control 3.17): 4.52 1000 dpm/200 mg fresh weight
Sugar content, increase (Pannonia vine variety): 21.5%
Sugar yield, increase (Pannonia vine variety): 27%
Berry yield (Pannonia vine variety): 226 q/ha
Sugar content (Pannonia vine variety): 15.8%
Sugar yield (Pannonia vine variety): 35.70 q/ha
Extinction (Pinto beans): 1.081
Promotion (Pinto beans): 61.2%
Protein nitrogen (Pinto bean): 4.4 % of dry weight
Total nitrogen (Pinto bean): 5.3 % of dry weight
Total nitrogen, stimulation (Pinto bean): 39.4%
Protein nitrogen, stimulation (Pinto bean): 83.3%
Protein nitrogen content in % of the total nitrogen content (Pinto bean): 83%
Grain yield, increase (hybrid maize): 12.4%
Grain yield (hybrid maize): 149.3 q/ha
Radioactivity A (leaves of Pinto beans): 3.92 dpm/200 mg fresh weight
Radioactivity B (leaves of Pinto beans): 0.34 dpm/200 mg fresh weight
Radioactivity C (leaves of Pinto beans): 4.26 dpm/200 mg fresh weight
Stimulation (leaves of Pinto beans): 84.0%
Dry substance ([1]; with kinetin (2 ppm)): 3.17%
Dry weight of the callus ([1]; with kinetin (2 ppm)): 209.13 mg
Fresh weight of the callus ([1]; with kinetin (2 ppm)): 6.5772 g
Growth, dry weight ([1]; with kinetin (2 ppm)): 18.78
Growth, fresh weight ([1]; with kinetin (2 ppm)): 20.92
Speed of growth ([1]; with kinetin (2 ppm)): 128.10 mg/day
percentage growth promoting effect ([1]; with kinetin): 134%
Dry substance ([1]; without kinetin): 7.07%
Dry weight of the callus ([1]; without kinetin): 43.29 mg
Fresh weight of the callus ([1]; without kinetin): 0.6120 g
Growth, dry weight ([1]; without kinetin): 3.09
Growth, fresh weight ([1]; without kinetin): 1.04
Speed of growth ([1]; without kinetin): 6.36 mg/day
percentage growth promoting effect ([1]; without kinetin): 322%
labelled phosphate in nucleic acid fraction (Pea): 32.7 1000 cpm/g
Protein nitrogen content, stimulation (Alfalfa; 1 treatment, 2 kg/ha): 8%
Total nitrogen content, stimulation (Alfalfa; 1 treatment, 2 kg/ha): 4%
Protein nitrogen content (Alfalfa; 1 treatment, 2 kg/ha): 2.48 % of dry substance
Total nitrogen content (Alfalfa; 1 treatment, 2 kg/ha): 3.51 % of dry substance
Protein nitrogen content, stimulation (Alfalfa; 2 treatments, 2 kg/ha each): 22%
Total nitrogen content, stimulation (Alfalfa; 2 treatments, 2 kg/ha each): 13%
Protein nitrogen content (Alfalfa; 2 treatments, 2 kg/ha each): 2.75 % of dry substance
Total nitrogen content (Alfalfa; 2 treatments, 2 kg/ha each): 3.91 % of dry substance
Crop yield (sugar beet): 877 q/ha
Sugar content (sugar beet): 17.05%
Sugar yield (sugar beet): 149.49 q/ha
Sugar yield, increase (sugar beet): 70%

— US4620871A (priority 1980, dated 1986)
